Experimental data from article PMC8151276, “An Integrated Approach toward NanoBRET Tracers for Analysis of GPCR Ligand Engagement” (Molecules, 2021).

Columns and labels:
Format in all cases: binding
[1] = target: T1, GRM2 (Homo sapiens, UniProt Q14416); assay: NanoBRET screen HiBiT-GRM2 in HEK293
T1 construct: purchased Promega (in-house HiBiT-GPCR construct library, NanoBRET)
Description: (§1) Each tracer candidate was screened across the entire library of HiBiT-GPCR constructs using NanoBRET as the detection modality. As depicted in Figure 4A, the specificity of interactions was evaluated through decrease in BRET due to competitive displacement of a bound tracer by excess parental compound. Each tracer was analyzed for binding to each HiBiT-GPCR fusion in the absence and in the presence of competing parental compound. Briefly, HEK293 cells were transfected with HiBiT-GPCR constructs diluted into promoterless DNA to reduce expression and maximize translocation to the cell surface. Each tracer candidate was then screened at concentrations of 1 μM and 0.1 μM across cells expressing these fusions. Cells were treated for 1.5 h with tracer either alone or in the presence of 20 μM competing parental compound (i.e., control). BRET was measured upon addition of purified LgBiT and subsequent complementation with HiBiT genetically fused to a GPCR. The specificity of interactions was assessed through a decrease in BRET signal due to competitive displacement of the bound tracer. To further gauge the robustness of these interactions, the fold response over the control (i.e., BRETtracer/BRETcontrol) was calculated. We chose a 1.5-fold response, which translates to ≥7-fold signal over noise as the minimal threshold required to score an interaction as positive. […]. Below we highlight the screening results obtained for our exemplary fluorescent tracers based on Clozapine, Amitriptyline and AZD1283.
(§2) HiBiT-GPCR DNA constructs were diluted in 10 mM Tris pH 8 to a final concentration of 0.01 μg/μL, arrayed in 96-well plates and stored at −20 °C. For transfection, HEK293 cells were suspended in Opti-MEM (without phenol red) supplemented with 2% fetal bovine serum (Seradigm) and 100 units/mL penicillin–streptomycin (Gibco) at a final concentration of 220,000 cells/mL and dispensed into white 96-well plates at 90 μL/well. Subsequent transfections and screens were carried using an Agilent Bravo Automated Liquid Handling Platform. First, the 96-well HiBiT DNA arrays were diluted 25-fold in Opti-MEM (without serum or phenol red) to a final concentration of 0.0004 μg/μL and 20 μL of the diluted DNAs were transferred into new 96-well plates. Next, promoterless carrier DNA (1 μg/μL) was diluted 25-fold (0.04 μg/μL) and then dispensed into the diluted arrays at 20 μL/well. Following brief mixing, Viafect transfection reagent (Promega) diluted 16-fold into Opti-MEM was dispensed into the plates at 40 μL/well. After mixing by pipetting, plates were incubated for 10 min on the pipetting station deck. The DNA-transfection reagent complexes were then added to plates containing cells. To facilitate the screen, 10 μL of DNA-transfection reagent complexes were added in duplicates to the top 4 and bottom 4 rows, resulting in two identical 48-well arrays per plate. Plates with transfected cells were incubated for 18–20 h at 37 °C/5% CO2. A screen of each tracer across the entire library using two different concentrations requires duplicate plates of transfected cells. Depending on the number of tracers being screened, transfections can be scaled up using the same ratios. The next day, for each tracer, four 20× screening solutions in tracer dilution buffer (Promega) were prepared: two duplicates at final concentration of 20 μM and two duplicates at a final concentration of 2 μM. A competing unmodified compound was added to one of each duplicate at a final concentration of 400 μM. The four resulting solutions were diluted 4-fold in Opti-MEM without serum or phenol red to generate 5× solutions (5 µM and 0.5 µM tracer +/− 100 μM competing compound). To screen the library, a BioTek MultiFlo FX liquid dispenser was used to dispense 22.5 µL of tracer solution to the top 4 rows and 22.5 µL tracer + competing compound solution to the 4 bottom rows. Plates were briefly mixed on an orbital shaker and incubated for 1.5 h at room temperature. […]

[2] = target: T2, PTGDR (Homo sapiens, UniProt Q13258); assay: NanoBRET screen HiBiT-PTGDR in HEK293
T2 construct: purchased Promega (in-house HiBiT-GPCR construct library, NanoBRET)
T2 sequence (Q13258 1-359): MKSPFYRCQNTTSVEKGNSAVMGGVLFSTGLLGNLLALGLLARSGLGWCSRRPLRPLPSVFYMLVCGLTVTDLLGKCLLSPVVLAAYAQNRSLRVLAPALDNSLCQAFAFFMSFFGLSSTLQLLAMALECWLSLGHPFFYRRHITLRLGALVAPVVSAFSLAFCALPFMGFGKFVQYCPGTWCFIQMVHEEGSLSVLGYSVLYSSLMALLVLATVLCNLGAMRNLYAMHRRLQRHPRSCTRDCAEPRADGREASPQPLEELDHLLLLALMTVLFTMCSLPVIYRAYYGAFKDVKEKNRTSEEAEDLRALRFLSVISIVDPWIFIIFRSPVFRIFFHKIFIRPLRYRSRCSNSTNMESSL
Description: as §1, §2

[3] = target: T3, MC3R (Homo sapiens, UniProt P41968); assay: NanoBRET screen HiBiT-MC3R in HEK293
T3 construct: purchased Promega (in-house HiBiT-GPCR construct library, NanoBRET)
Description: as §1, §2

[4] = target: T4, SSTR5 (Homo sapiens, UniProt P35346); assay: NanoBRET screen HiBiT-SSTR5 in HEK293
T4 construct: purchased Promega (in-house HiBiT-GPCR construct library, NanoBRET)
Description: as §1, §2

[5] = target: T5, P2RY11 (Homo sapiens, UniProt Q96G91); assay: NanoBRET screen HiBiT-P2RY11 in HEK293
T5 construct: purchased Promega (in-house HiBiT-GPCR construct library, NanoBRET)
T5 sequence (Q96G91 1-374): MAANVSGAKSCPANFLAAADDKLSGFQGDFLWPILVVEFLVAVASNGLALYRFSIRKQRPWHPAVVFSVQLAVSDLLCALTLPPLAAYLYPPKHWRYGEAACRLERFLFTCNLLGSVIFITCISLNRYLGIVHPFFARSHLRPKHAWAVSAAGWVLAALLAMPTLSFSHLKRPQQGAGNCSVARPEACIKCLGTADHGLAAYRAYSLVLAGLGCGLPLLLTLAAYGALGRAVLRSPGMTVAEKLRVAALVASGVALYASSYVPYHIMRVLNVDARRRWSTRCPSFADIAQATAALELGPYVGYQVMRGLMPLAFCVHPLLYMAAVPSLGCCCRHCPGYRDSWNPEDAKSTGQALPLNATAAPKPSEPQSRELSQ
Description: as §1, §2

[6] = target: T6, CCR3 (Homo sapiens, UniProt P51677); assay: NanoBRET screen HiBiT-CCR3 in HEK293
T6 construct: purchased Promega (in-house HiBiT-GPCR construct library, NanoBRET)
T6 sequence (P51677 1-355): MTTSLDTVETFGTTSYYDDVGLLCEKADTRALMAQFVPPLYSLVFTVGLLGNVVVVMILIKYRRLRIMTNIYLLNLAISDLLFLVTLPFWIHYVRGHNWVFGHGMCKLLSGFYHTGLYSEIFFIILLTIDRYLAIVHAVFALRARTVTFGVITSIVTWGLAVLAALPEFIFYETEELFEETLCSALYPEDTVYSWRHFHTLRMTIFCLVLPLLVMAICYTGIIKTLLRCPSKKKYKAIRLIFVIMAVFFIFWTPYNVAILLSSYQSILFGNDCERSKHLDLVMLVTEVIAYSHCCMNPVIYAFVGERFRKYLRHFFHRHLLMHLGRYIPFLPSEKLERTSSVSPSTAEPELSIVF
Description: as §1, §2

T4 sequence (P35346 whole entry): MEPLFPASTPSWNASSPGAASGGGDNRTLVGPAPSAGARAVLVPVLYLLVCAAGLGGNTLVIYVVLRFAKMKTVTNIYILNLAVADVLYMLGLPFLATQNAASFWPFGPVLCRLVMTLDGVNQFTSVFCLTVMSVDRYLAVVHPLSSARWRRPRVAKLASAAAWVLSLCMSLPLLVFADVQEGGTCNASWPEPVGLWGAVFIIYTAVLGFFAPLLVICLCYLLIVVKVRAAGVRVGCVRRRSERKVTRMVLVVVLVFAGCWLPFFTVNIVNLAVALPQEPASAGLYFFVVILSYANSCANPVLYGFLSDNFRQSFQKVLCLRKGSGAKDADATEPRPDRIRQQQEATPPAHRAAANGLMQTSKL
T1 sequence (Q14416 19-872): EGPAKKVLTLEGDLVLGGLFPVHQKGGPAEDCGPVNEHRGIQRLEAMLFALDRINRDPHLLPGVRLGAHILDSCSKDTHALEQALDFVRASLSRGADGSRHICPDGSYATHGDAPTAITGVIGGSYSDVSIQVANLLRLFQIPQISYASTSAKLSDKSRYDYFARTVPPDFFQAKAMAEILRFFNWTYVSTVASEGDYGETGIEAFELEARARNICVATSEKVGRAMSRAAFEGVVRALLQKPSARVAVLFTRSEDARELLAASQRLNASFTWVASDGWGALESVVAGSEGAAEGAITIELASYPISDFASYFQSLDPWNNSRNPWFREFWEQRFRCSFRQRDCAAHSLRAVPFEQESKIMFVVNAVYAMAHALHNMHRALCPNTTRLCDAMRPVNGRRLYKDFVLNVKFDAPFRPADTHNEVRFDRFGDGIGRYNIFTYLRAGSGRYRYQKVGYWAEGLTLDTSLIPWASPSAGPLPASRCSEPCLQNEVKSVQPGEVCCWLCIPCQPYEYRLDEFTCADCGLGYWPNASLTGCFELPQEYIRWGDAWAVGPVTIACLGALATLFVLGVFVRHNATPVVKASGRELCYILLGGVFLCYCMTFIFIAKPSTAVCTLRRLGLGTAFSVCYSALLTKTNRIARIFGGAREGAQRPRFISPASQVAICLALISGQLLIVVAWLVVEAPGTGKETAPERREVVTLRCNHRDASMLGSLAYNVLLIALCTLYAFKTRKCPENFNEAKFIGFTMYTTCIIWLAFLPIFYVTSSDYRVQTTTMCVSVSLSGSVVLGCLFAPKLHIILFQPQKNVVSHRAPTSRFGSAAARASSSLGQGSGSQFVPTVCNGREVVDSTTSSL
T3 sequence (P41968 whole entry): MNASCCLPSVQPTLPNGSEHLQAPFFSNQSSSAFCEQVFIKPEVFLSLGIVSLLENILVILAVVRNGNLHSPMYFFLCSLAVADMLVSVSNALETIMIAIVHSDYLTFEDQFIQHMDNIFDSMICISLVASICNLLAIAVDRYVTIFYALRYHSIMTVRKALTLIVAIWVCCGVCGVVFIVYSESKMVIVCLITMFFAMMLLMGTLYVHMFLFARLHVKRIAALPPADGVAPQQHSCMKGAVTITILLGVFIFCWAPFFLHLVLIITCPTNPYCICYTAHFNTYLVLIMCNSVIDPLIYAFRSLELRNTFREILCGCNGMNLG

O=C(CCc1ccc2n1[B-](F)(F)[N+]1=C(c3ccc[nH]3)C=CC1=C2)NCc1ccc(C(=O)NCCOCCC(=O)N[C@@H]2CC[C@@]3(O)[C@H]4Cc5ccc(O)c6c5[C@@]3(CCN4CC3CC3)[C@H]2O6)cc1 [Naltrexone-3-NB590]
NanoBRET Fold Response ([1]; GRM2, tracer 0.1μM): 0.92 | NanoBRET Fold Response ([1]; GRM2, tracer 1μM): 0.98 | NanoBRET Fold Response ([2]; PTGDR, tracer 0.1μM): 0.85 | NanoBRET Fold Response ([2]; PTGDR, tracer 1μM): 0.97 | NanoBRET Fold Response ([3]; MC3R, tracer 0.1μM): 0.90 | NanoBRET Fold Response ([3]; MC3R, tracer 1μM): 1.11 | NanoBRET Fold Response ([4]; SSTR5, tracer 0.1μM): 0.96 | NanoBRET Fold Response ([4]; SSTR5, tracer 1μM): 0.96 | NanoBRET Fold Response ([5]; P2RY11, tracer 0.1μM): 1.26 | NanoBRET Fold Response ([5]; P2RY11, tracer 1μM): 0.71 | NanoBRET Fold Response ([6]; CCR3, tracer 0.1μM): 1.35 | NanoBRET Fold Response ([6]; CCR3, tracer 1μM): 0.89

COc1ccccc1N1CCN(CCCCN2C(=O)c3ccc(CNC(=O)CCOCCNC(=O)c4ccc(CNC(=O)CCc5ccc6n5[B-](F)(F)[N+]5=C(c7ccc[nH]7)C=CC5=C6)cc4)cc3C2=O)CC1 [NAN-190-3-NB590]
NanoBRET Fold Response ([1]; GRM2, tracer 0.1μM): 1.03 | NanoBRET Fold Response ([1]; GRM2, tracer 1μM): 1.03 | NanoBRET Fold Response ([2]; PTGDR, tracer 0.1μM): 0.96 | NanoBRET Fold Response ([2]; PTGDR, tracer 1μM): 0.98 | NanoBRET Fold Response ([3]; MC3R, tracer 0.1μM): 1.10 | NanoBRET Fold Response ([3]; MC3R, tracer 1μM): 0.95 | NanoBRET Fold Response ([4]; SSTR5, tracer 0.1μM): 1.02 | NanoBRET Fold Response ([4]; SSTR5, tracer 1μM): 1.03 | NanoBRET Fold Response ([5]; P2RY11, tracer 0.1μM): 1.05 | NanoBRET Fold Response ([5]; P2RY11, tracer 1μM): 0.96 | NanoBRET Fold Response ([6]; CCR3, tracer 0.1μM): 1.02 | NanoBRET Fold Response ([6]; CCR3, tracer 1μM): 1.02

Cc1cc2c(s1)Nc1ccccc1N=C2N1CCN(CCCNC(=O)CCOCCOCCOCCOCCNC(=O)CCc2ccc3n2[B-](F)(F)[N+]2=C(c4ccc[nH]4)C=CC2=C3)CC1 [Olanzapine-a-2-NB590]
NanoBRET Fold Response ([1]; GRM2, tracer 0.1μM): 1.00 | NanoBRET Fold Response ([1]; GRM2, tracer 1μM): 1.01 | NanoBRET Fold Response ([2]; PTGDR, tracer 0.1μM): 0.95 | NanoBRET Fold Response ([2]; PTGDR, tracer 1μM): 1.09 | NanoBRET Fold Response ([3]; MC3R, tracer 0.1μM): 1.00 | NanoBRET Fold Response ([3]; MC3R, tracer 1μM): 1.12 | NanoBRET Fold Response ([4]; SSTR5, tracer 0.1μM): 1.01 | NanoBRET Fold Response ([4]; SSTR5, tracer 1μM): 1.02 | NanoBRET Fold Response ([5]; P2RY11, tracer 0.1μM): 1.00 | NanoBRET Fold Response ([5]; P2RY11, tracer 1μM): 0.89 | NanoBRET Fold Response ([6]; CCR3, tracer 0.1μM): 1.19 | NanoBRET Fold Response ([6]; CCR3, tracer 1μM): 1.22

CCCn1c(=O)c2[nH]c(-c3ccc(OCC(=O)NCCNC(=O)CCOCCNC(=O)c4ccc(CNC(=O)CCc5ccc6n5[B-](F)(F)[N+]5=C(c7ccc[nH]7)C=CC5=C6)cc4)cc3)nc2n(CCC)c1=O [XAC-3-NB590]
NanoBRET Fold Response ([1]; GRM2, tracer 0.1μM): 1.01 | NanoBRET Fold Response ([1]; GRM2, tracer 1μM): 1.03 | NanoBRET Fold Response ([2]; PTGDR, tracer 0.1μM): 1.02 | NanoBRET Fold Response ([2]; PTGDR, tracer 1μM): 1.06 | NanoBRET Fold Response ([3]; MC3R, tracer 0.1μM): 1.04 | NanoBRET Fold Response ([3]; MC3R, tracer 1μM): 1.10 | NanoBRET Fold Response ([4]; SSTR5, tracer 0.1μM): 0.99 | NanoBRET Fold Response ([4]; SSTR5, tracer 1μM): 1.01 | NanoBRET Fold Response ([5]; P2RY11, tracer 0.1μM): 1.21 | NanoBRET Fold Response ([5]; P2RY11, tracer 1μM): 1.25 | NanoBRET Fold Response ([6]; CCR3, tracer 0.1μM): 1.28 | NanoBRET Fold Response ([6]; CCR3, tracer 1μM): 0.79

COc1ccc2c(n1)c(CCNC(C)=O)cn2CCNC(=O)CCc1ccc2n1[B-](F)(F)[N+]1=C(c3ccc[nH]3)C=CC1=C2 [Azamelatonin-1-NB590]
NanoBRET Fold Response ([1]; 0.1μM tracer): 1.19 | NanoBRET Fold Response ([1]; 1μM tracer): 1.00 | NanoBRET Fold Response ([2]; 0.1μM tracer): 1.13 | NanoBRET Fold Response ([2]; 1μM tracer): 1.18 | NanoBRET Fold Response ([3]; 0.1μM tracer): 0.93 | NanoBRET Fold Response ([3]; 1μM tracer): 1.22 | NanoBRET Fold Response ([4]; 0.1μM tracer): 0.82 | NanoBRET Fold Response ([4]; 1μM tracer): 0.99 | NanoBRET Fold Response ([5]; 0.1μM tracer): 0.89 | NanoBRET Fold Response ([5]; 1μM tracer): 0.89 | NanoBRET Fold Response ([6]; 0.1μM tracer): 1.27 | NanoBRET Fold Response ([6]; 1μM tracer): 0.96
